Columns and labels:
ERRα = experiment: Immunoblot analysis of ERRα expression in ERRα-transfected BT-474 cells; format: cell-based, human; settings: BT-474 cells transfected with ERRα, 48 h; 20 μg/ml trastuzumab, 1 μM gefitinib, 20 μM U0126 or 20 μM LY294002
Description: (§1) BT-474 cells were co-transfected in parallel with the ERE(5x)-regulated and TATA dual-luciferase reporter gene sets along with the indicated expression plasmids. […] In panel (B), the cells were incubated for 48 h in estrogen-free medium supplemented with dimethyl sulfoxide as the drug vehicle control, 20 μM U0126 (MEK inhibitor), or 20 μM LY294002 (PI3K inhibitor) as indicated. After incubation for 48 h, the cells were harvested for dual-luciferase assays. Data were analyzed as described in the legend to FIG. 2. (C) Immunoblot analysis of protein extracts (20 μg per sample) prepared from BT-474 cells treated as in panels A and B above for luciferase activity. The membrane was probed with antibodies that react specifically with ERRα. Reactive proteins were visualized by enhanced chemiluminescence and autoradiography. (D) Immunoblot analysis as in panel C above, only the membrane was probed with antibodies that react specifically with phosphorylated Akt (p-Akt), total Akt, phosphorylated MAPK (p-MAPK) or total MAPK.
(§2) Proteins were extracted in Cell Lysis Buffer (Cell Signaling Technology, Beverly, Mass.) supplemented with Protease Inhibitor Cocktail Set III and Phosphatase Inhibitor Cocktail Set II (Calbiochem). Protein amounts were quantified with Coomassie Protein Assay Reagent (Pierce Biotechnology) with BSA as the standard. […] In FIG. 5D, the membrane was probed sequentially with p44/42 MAPK polyclonal antibody, phospho-specific p44/42 MAPK (Thr202/Tyr204) monoclonal antibody E10, Akt polyclonal antibody, and phospho-specific Akt (Ser473) polyclonal antibody (Cell Signaling Technology). Reacting material was detected using horseradish peroxidase-conjugated secondary antibodies (Jackson ImmunoResearch Laboratories, West Grove, Pa.) together with enhanced chemiluminescence (Amersham Pharmacia) and autoradiography.

[1] = system: phosphorylated MAPK (p-MAPK); experiment: Immunoblot analysis of phosphorylated versus total MAPK in BT-474 cells; format: cell-based, human; settings: 48 h, 20 μg/ml trastuzumab, 1 μM gefitinib, 20 μM U0126 or 20 μM LY294002
Description: as §1, §2

[2] = system: phosphorylated Akt (p-Akt); experiment: Immunoblot analysis of phosphorylated versus total Akt in BT-474 cells; format: cell-based, human; settings: 48 h, 20 μg/ml trastuzumab, 1 μM gefitinib, 20 μM U0126 or 20 μM LY294002
Description: as §1, §2

BT-474 cells = settings: literature statement; cited from earlier work
MCF-7 cells [3] = settings: literature statement; cited from earlier work
MCF-7 cells [4] = experiment: 7 day growth assay, DNA content per well, MCF-7 cells; settings: 1I M gefitinib, 7 days
Description: Using 12-well plates, MCF-7 and BT-474 cells were seeded at 15,000 and 30,000 cells per well. Cells were cultured for 7 days in the presence of the indicated test agents with media changes at day 0, day 2 and day 5. Following the 7 day treatment course, cells were assayed for DNA content per well. The results shown represent the mean ± SEM of three replicate wells.
MCF-7 and BT-474 cells were seeded in 12-well plates at 15,000 and 30,000 cells per well, respectively. Cells were allowed to grow in the presence of the test agents for a total of 7 days, after which, they were harvested for measurement of DNA content per well using a fluorescent DNA quantification kit (Bio-Rad, Hercules, Calif.). Day 0 was considered to be 24 h after the cells were seeded, when the medium was initially replaced with fresh medium containing the test agents. The cell culture medium was again exchanged with fresh medium containing the appropriate test agents on days 2 and 5. […] The effects on cellular proliferation of the test agents are shown as the percentage of DNA amount per well relative to the control treated cells.

For `COc1cc2ncnc(Nc3ccc(F)c(Cl)c3)c2cc1OCCCN1CCOCC1` [gefitinib], which “ERRα expression (immunoblot)” value (ERRα) is on record?
Its value is “expression was maintained”.

And the “phosphorylation of MAPK / MEK/MAPK pathway activation (immunoblot)” value [1]?
The value was “inhibited activation of the MEK/MAPK and PI3K/Akt signaling pathways”.

What about the “phosphorylation of Akt / PI3K/Akt pathway activation (immunoblot)” value [2] of the same molecule?
Its value is “inhibited activation of the MEK/MAPK and PI3K/Akt signaling pathways”.

What about the “effect on growth of BT-474 cells (known, ref. 26)” value (BT-474 cells) of the same molecule?
The value was “significantly inhibit the growth”.

And the “effect on growth of MCF-7 cells (known, ref. 35)” value (MCF-7 cells [3])?
The value was “affect only minimally the growth”.

What about the “effect on growth of MCF-7 cells” value (MCF-7 cells [4]) of the same molecule?
Its value is “did not significantly affect the growth”.
